One compound from PMC9632963, “Preclinical characterization and phase I clinical trial of CT053PTSA targets MET, AXL, and VEGFR2 in patients with advanced solid tumors” (Frontiers in Immunology, 2022) can be followed below.

One series has as its target EphA4 (Homo sapiens, UniProt P54764). Put plainly: Kinase inhibition assay (LANCE or HTRF). It counts as biochemical. As to conditions: ATP at Km. (In general: Time-resolved FRET reads energy transfer from a long-lived donor to a nearby acceptor.)
For a further series, the target named is EphA6 (Homo sapiens, UniProt Q9UF33). Put plainly: Kinase inhibition assay (LANCE or HTRF). The series is classed as biochemical. As to conditions: ATP at Km.
In a further series the target is Tyro3 (Homo sapiens, UniProt Q06418). Put plainly: Kinase inhibition assay (LANCE or HTRF). As to conditions: ATP at Km. The series is classed as biochemical.
The target in another series is Yes (Homo sapiens, UniProt P07947). Put plainly: Kinase inhibition assay (LANCE or HTRF). The series is classed as biochemical. As to conditions: ATP at Km.
Another series has as its target FLT4 (Homo sapiens, UniProt P35916). Put plainly: Kinase inhibition assay (LANCE or HTRF). It counts as biochemical. As to conditions: ATP at Km.
For a further series, the target named is Fes (Homo sapiens, UniProt P07332). Put plainly: Kinase inhibition assay (LANCE or HTRF). The series is classed as biochemical. As to conditions: ATP at Km.
In the next series the target is Fgr (Homo sapiens, UniProt P09769). Put plainly: Kinase inhibition assay (LANCE or HTRF). As to conditions: ATP at Km. The series is classed as biochemical.
The next series deals with MNK2 (Homo sapiens, UniProt Q9HBH9). Put plainly: Kinase inhibition assay (LANCE or HTRF). It counts as biochemical. As to conditions: ATP at Km.
A further series concerns the target Musk (Homo sapiens, UniProt O15146). Put plainly: Kinase inhibition assay (LANCE or HTRF). The series is classed as biochemical. As to conditions: ATP at Km.
The next series addresses PDGFRα (Homo sapiens, UniProt P16234). Put plainly: Kinase inhibition assay (LANCE or HTRF). The series is classed as biochemical. As to conditions: ATP at Km.
In the next series the test system is SNU638. Put plainly: Cell proliferation assay (CellTiter-Glo, 72 hours). It counts as cell-based. As to conditions: Homo sapiens, SNU-638, read-out: IC50 anti-proliferative.
Another series concerns MKN45. Put plainly: Cell proliferation assay (CellTiter-Glo, 72 hours). It counts as cell-based. As to conditions: Homo sapiens, MKN-45, read-out: IC50 anti-proliferative.
A further series deals with MKN74. Put plainly: Cell proliferation assay (CellTiter-Glo, 72 hours). As to conditions: Homo sapiens, MKN-74, read-out: IC50 anti-proliferative. The series is classed as cell-based. (In general: Cellular ATP, detected with luciferase, serves as a proxy for viable cell number.)
A further series relates to AGS. Put plainly: Cell proliferation assay (CellTiter-Glo, 72 hours). The series is classed as cell-based. As to conditions: Homo sapiens, read-out: IC50 anti-proliferative.
Another series has as its system SNU-601. Put plainly: Cell proliferation assay (CellTiter-Glo, 72 hours). The series is classed as cell-based. As to conditions: Homo sapiens, read-out: IC50 anti-proliferative.
Series [1] is described as follows: Phase I trial: clinical pharmacokinetics in plasma. It counts as in vivo, human. On the procedure:
A clinical pharmacokinetic study of CT053PTSA was performed for both single doses and multiple doses. Blood samples were collected from each subject at prespecified times before and after single-dose administration (systemic blood samples: before treatment and 0.5, 1, 2, 3, 4, 5, 8, 12, 24, 36, 48, 72, 120 and 168 hours after treatment) and during multiple dosing (cycle 1 before treatment on Days 8, 15 and 22, as well as systemic blood samples on Day 28). […]
Statistical analysis of CT053-treated tumors versus vehicle-treated tumors or versus nontreated tumors was performed by repeated-measures ANOVA. The data from the tumor xenograft models were expressed as the means ± standard error of the mean (SEM) and were plotted as a function of time. Noncompartmental pharmacokinetic analysis was performed using Phoenix WinNonlin Version 6.2.1 (Certara Inc., NJ, USA). Demographics and laboratory results of all the subjects were summarized using descriptive statistics. The pharmacokinetic parameters Tmax and T1/2 were shown as the median (min, max) and mean ± SD, respectively. A two-sided P < 0.05 was considered to indicate statistical significance. Statistical analysis was performed by using GraphPad Prism 5.0 (GraphPad Prism, RRID : SCR_002798) and SPSS software version 19.0 (SPSS, RRID : SCR_002865).

Molecules are shown by their SMILES.

Chain of Yes (P07947 whole entry): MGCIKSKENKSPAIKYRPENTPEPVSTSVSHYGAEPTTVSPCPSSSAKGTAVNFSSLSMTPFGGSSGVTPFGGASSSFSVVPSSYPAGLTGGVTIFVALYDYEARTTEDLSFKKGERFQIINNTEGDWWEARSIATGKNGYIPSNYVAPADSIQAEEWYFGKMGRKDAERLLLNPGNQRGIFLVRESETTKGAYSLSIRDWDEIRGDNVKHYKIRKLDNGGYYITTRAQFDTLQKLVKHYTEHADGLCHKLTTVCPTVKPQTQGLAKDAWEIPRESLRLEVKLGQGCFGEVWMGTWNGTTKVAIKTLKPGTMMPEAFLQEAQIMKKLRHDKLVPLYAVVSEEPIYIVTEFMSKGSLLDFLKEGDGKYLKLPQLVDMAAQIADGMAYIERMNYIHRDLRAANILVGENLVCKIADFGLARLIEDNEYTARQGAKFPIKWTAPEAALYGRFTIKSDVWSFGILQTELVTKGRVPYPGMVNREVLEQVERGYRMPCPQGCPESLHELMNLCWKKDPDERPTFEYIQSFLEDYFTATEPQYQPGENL
Chain of EphA4 (P54764 20-986): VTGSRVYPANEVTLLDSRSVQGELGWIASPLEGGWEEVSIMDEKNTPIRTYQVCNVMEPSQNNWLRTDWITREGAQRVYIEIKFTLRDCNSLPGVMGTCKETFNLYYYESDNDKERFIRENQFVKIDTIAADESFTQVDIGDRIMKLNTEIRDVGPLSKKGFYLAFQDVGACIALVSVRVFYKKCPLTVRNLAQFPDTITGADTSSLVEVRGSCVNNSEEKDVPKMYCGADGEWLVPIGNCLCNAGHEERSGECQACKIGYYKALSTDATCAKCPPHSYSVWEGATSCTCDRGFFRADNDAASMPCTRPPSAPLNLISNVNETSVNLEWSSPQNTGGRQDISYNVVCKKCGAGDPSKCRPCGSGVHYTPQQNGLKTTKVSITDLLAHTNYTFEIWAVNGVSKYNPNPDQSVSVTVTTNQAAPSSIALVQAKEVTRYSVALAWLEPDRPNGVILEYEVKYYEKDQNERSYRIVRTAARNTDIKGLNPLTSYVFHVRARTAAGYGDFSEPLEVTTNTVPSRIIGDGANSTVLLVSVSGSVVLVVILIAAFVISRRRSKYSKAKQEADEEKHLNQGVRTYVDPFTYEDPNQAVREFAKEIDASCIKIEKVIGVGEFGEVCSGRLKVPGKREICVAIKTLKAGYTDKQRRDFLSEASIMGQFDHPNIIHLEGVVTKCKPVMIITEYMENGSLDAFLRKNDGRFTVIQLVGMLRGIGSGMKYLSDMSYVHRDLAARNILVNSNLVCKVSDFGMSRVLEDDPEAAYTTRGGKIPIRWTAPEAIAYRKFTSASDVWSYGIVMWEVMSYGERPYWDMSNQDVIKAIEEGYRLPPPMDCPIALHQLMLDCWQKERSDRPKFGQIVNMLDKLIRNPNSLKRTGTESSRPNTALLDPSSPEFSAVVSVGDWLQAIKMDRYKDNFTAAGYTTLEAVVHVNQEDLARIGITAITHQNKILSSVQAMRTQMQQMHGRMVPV
Chain of Tyro3 (Q06418 41-890): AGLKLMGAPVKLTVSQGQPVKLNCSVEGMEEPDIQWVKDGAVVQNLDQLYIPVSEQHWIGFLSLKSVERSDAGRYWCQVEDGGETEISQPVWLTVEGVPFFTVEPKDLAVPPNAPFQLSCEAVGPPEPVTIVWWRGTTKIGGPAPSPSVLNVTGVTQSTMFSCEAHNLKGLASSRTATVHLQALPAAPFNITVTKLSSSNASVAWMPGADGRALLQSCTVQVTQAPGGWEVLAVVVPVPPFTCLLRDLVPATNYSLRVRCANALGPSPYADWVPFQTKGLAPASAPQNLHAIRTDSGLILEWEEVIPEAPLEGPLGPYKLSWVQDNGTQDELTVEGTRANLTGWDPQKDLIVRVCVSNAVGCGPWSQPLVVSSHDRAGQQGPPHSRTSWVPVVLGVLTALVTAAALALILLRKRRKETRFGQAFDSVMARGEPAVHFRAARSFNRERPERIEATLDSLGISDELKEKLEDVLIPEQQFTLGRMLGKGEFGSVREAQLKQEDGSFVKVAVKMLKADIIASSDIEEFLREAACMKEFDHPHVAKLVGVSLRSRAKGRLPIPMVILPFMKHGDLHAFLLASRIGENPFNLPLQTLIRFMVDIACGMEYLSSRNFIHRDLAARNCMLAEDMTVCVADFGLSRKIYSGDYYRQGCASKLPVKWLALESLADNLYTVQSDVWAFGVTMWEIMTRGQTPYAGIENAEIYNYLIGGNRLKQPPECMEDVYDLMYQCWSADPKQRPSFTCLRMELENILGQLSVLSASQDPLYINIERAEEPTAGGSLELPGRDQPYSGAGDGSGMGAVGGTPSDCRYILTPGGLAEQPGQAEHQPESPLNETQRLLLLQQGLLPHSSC
Chain of PDGFRα (P16234 24-1089): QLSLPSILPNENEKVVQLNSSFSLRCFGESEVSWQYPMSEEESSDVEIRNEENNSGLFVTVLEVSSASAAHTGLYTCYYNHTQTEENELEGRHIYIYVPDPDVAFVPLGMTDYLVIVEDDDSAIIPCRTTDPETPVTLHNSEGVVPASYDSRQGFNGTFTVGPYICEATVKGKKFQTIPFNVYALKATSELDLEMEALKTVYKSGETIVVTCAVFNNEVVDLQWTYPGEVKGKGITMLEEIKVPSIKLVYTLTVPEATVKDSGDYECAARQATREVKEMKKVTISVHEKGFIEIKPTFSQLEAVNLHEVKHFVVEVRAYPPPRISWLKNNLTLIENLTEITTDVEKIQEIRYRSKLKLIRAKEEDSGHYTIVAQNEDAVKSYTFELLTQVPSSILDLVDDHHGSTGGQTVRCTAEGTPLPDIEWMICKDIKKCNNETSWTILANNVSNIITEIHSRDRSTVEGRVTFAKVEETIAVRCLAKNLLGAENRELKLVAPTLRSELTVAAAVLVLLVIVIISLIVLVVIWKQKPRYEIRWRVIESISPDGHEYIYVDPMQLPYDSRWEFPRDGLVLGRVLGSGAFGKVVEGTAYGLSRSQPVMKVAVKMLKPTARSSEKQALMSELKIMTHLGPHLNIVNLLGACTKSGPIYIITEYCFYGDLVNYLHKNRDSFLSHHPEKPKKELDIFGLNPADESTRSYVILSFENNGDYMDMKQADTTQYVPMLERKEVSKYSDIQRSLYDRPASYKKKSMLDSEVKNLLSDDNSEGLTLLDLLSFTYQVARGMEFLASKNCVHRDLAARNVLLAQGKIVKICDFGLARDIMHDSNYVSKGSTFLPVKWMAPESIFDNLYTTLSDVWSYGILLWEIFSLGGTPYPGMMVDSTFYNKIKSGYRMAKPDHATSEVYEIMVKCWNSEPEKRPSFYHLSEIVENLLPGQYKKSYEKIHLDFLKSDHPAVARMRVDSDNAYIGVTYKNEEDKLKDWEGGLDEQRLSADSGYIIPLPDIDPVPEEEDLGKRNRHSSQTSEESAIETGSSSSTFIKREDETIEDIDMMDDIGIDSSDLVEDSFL
Chain of Musk (O15146 24-869): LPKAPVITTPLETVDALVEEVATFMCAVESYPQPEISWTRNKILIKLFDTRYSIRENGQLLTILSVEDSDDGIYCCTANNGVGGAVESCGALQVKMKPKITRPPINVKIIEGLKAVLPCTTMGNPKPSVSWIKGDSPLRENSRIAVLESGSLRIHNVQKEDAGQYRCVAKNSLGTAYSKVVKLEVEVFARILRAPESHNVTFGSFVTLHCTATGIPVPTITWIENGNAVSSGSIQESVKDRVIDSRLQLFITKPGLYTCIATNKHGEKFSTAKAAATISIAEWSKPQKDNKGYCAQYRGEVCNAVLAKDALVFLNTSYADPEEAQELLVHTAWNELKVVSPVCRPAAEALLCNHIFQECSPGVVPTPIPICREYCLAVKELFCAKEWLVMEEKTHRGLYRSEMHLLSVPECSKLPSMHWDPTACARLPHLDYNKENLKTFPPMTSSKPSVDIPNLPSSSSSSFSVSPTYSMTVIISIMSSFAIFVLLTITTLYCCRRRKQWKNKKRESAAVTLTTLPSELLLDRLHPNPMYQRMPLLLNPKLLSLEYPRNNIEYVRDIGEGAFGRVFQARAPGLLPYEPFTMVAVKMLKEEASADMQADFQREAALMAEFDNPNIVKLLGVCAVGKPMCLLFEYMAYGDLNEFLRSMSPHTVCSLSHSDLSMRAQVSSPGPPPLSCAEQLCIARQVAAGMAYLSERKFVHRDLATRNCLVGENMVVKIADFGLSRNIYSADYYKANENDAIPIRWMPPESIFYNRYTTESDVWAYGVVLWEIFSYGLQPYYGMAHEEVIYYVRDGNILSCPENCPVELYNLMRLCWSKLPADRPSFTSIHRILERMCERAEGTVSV
Chain of Fes (P07332 whole entry): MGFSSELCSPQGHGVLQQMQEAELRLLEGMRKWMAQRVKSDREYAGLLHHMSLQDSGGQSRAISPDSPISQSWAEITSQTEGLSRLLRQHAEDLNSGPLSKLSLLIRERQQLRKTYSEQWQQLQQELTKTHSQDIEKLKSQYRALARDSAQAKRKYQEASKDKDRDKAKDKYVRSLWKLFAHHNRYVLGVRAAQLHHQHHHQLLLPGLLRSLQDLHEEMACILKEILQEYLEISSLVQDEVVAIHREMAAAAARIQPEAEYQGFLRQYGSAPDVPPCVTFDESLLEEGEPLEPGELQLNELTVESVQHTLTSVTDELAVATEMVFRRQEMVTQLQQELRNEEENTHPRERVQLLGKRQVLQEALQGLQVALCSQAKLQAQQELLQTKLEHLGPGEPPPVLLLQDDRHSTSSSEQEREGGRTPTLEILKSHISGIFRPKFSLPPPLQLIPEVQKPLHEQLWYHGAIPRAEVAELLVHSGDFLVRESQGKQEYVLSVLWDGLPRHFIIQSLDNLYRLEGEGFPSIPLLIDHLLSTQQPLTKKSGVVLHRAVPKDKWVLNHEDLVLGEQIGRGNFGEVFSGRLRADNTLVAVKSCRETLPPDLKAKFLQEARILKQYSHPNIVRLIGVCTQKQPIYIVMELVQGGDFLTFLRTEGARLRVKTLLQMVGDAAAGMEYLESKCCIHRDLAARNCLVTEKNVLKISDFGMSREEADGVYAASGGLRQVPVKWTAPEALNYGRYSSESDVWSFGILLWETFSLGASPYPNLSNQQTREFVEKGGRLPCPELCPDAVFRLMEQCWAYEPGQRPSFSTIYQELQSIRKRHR
Protocol for AGS: (§1) These cell lines were obtained from American Type Culture Collection (ATCC), Japanese Collection of Research Bioresources (JCRB), Shanghai Institutes of Biological Sciences, CAS (SIBS), Korean Cell Line Bank (KCLB) or National Institutes of Health (NIH). […] Cell viability was measured after 72 hours using a CellTiter-Glo Luminescent Cell Viability Assay Kit (Promega, WI, USA) according to the manufacturer’s instructions.
Protocol for EphA4: (§2) The IC50 values were determined by measuring phosphorylation of peptide substrate poly at ATP concentrations at the Km.
Protocol for EphA6: as §2
Protocol for FLT4: as §2
Protocol for Fes: as §2
Protocol for Fgr: as §2
Protocol for MKN45: (§3) Human gastric tumor cell lines with high MET expression levels, namely, the GTL-16, MKN45, SNU638, Hs746T, SNU-620, and SNU-5 cell lines, were used in the assay. […] Cell viability was measured after 72 hours using a CellTiter-Glo Luminescent Cell Viability Assay Kit (Promega, WI, USA) according to the manufacturer’s instructions.
Protocol for MNK2: as §2
Protocol for Musk: as §2
Protocol for PDGFRα: as §2
Protocol for SNU-601: as §1
Protocol for SNU638: as §3
Protocol for Tyro3: as §2
Protocol for Yes: as §2

By IC50 is commonly meant the concentration that gives 50% inhibition. As to `Cc1c(C(=O)Nc2ccc(Oc3ccnc4cc(OCC(C)(C)O)ccc34)c(F)c2)c(=O)n(-c2ccccc2)n1C` [CT053], the half-maximal inhibitory concentration (IC50) against EphA4 came to 370 nM; at EphA6, 81 nM; on Tyro3, 150 nM; against Yes, 110 nM; on FLT4, 46 nM; against Fes it was 48 nM. For the same compound, the IC50 was 77 nM against Fgr; 55 nM against MNK2; 310 nM against Musk; 390 nM against PDGFRα; 90 nM in the series with SNU638; 100 nM in the series with MKN45. The values for the 50% inhibitory concentration (IC50) in the series with MKN74, with AGS and with SNU-601 were 6.88 µM, more than 10 µM and more than 10 µM, respectively. Moreover, the “PK profile versus dose” value is “linear PK profile” in series [1] (multiple doses, 60-100 mg) and “general linear PK profile” in series [1] (single oral dose, 15 to 150 mg).
